Measured values from patent US4681895A, “Novel guanidinomethylcyclohexanecarboxylic acid compounds and anti-ulcer drug containing the same” (Kanebo, Ltd., priority 1985, dated 1987).

Assays:
[1] = system: stress-induced gastric ulcer; experiment: Activity against stress-induced gastric ulcer; assay type: in vivo, Male Sprague-Dawley rats; details: Rattus norvegicus; oral, rats, 15 min before stress cage in 23° C. water bath for 17 hours; read-out: ED50, Anti-stress-induced ulcer
Procedure: The experiment was carried out by a modified method of that of Takagi and Okabe [cf. Jap. J. Pharmacol., 18, 9 (1968)]. Male Sprague-Dawley rats weighing 180-200 g (8 week old), 6-8 per group, were fasted for 24 hours and administered orally with each test compound which was suspended in 1% arabic gum aqueous solution. After 15 minutes, the animals were placed in a stress cage and immerse vertically to the level of the xiphoid process in a water bath kept at 23° C. for 17 hours. The animals were killed by ether inhalation. The stomach of each rat was removed, inflated by injecting 12 ml of 1% formalin, and immersed in 1% formalin for 15 minutes. The stomach was then incised along the greater curvature and examined for lesions in the glandular portion under a dissecting microscope. The length (mm) of a ulcer was totalled on each animal and it was indicated as the ulcer index. The mean ulcer index (m) in each test compound-treated group was calculated. The control animals received the same procedure without administering of test compound and the mean ulcer index (l) was calculated. Inhibitory ratio of test compound is expressed as follows. Inhibitory ratio (%)=(1-m/l)×100 wherein l is mean ulcer index in control group, and m is mean ulcer index in test compound-treated group. The anti-ulcer activity of test compound (ED50) was calculated by dose-response curve.

[2] = system: ethanol-induced gastric ulcer; experiment: Activity against ethanol-induced gastric ulcer; assay type: in vivo, Male Sprague-Dawley rats; details: Rattus norvegicus; oral, rats, 30 min before 99.5% ethanol 1 ml orally; killed 1 hour after; read-out: ED50, Anti-ethanol-induced ulcer
Procedure: (§1) The same test compounds as used in Experiment 1 were used.
The experiment was carried out according to the method of Robert et al. [cf. Gastroenterology, 77, 433 (1979)].
Male Sprague-Dawley rats weighing 180-200 g (8 week old), 6-8 per group, were fasted for 24 hours and administered orally with each test compound which was suspended in 1% arabic gum aqueous solution. After 30 minutes, 99.5% ethanol (as a necrotizing agent) was given orally to the rats in a volume of 1 ml. The animals were killed by ether inhalation 1 hour after receiving of ethanol. The stomach of each rat was removed, inflated by injecting 12 ml of 1 % formalin, and immersed in 1% formalin for 15 minutes. Afterward, the mean ulcer index and inhibitory ratio were calculated by the same method as in Experiment 1, and then the ED50 was calculated by dose-response curve.

[3] = system: indomethacin-induced gastric ulcer; experiment: Activity against indomethacin-induced gastric ulcer; assay type: in vivo, Male Sprague-Dawley rats; details: Rattus norvegicus; oral, rats, 15 min before indomethacin 30 mg/kg subcutaneously; killed 5 hours after; read-out: ED50, Anti-indomethacin-induced ulcer
Procedure: as §1
The experiment was carried out by a modified method of that of Okabe et al. [cf. Dig. Dis. Sci., 28, 1034 (1983)].
Male Sprague-Dawley rats weighing 180-200 g (8 week old), 6-8 per group, were fasted for 24 hours and administered orally with each test compound which was suspended in 1% arabic gum aqueous solution. After 15 minutes, indomethacin (in a solution in 3% sodium bicarbonate solution) was given subcutaneously to the rats at a dose of 30 mg/kg. The animals were killed by ether inhalation 5 hours after receiving of indomethacin. The stomach of each rat was removed, inflated by injecting 12 ml of 1% formalin, containing 0.1% pontamine sky blue, and immersed in 1% formalin for 15 minutes. Afterward, the mean ulcer index and inhibitory ratio were calculated by the same method as in Experiment 1, and then ED50 was calculated by dose response curve.

Male ddY mice = experiment: Test of acute toxity [minimum lethal dose (MLD)]; assay type: in vivo; details: oral, mice fasted 17 hours, observed for 7 days
Procedure: as §1
Male ddY mice weighing 20-22 g (4 week old), 5 per group, were fasted for 17 hours and administered orally with each test compound which was suspended in 1% arabic gum aqueous solution.

peptic ulcers = details: disclosed in Japanese Patent First Publications; cited from earlier work

Row | Structure (SMILES) | ED50 [1] [mg/kg] | ED50 [2] [mg/kg] | ED50 [3] [mg/kg] | MLD (acute toxicity) (Male ddY mice) | anti-ulcer activity, in words (peptic ulcers)
1 | CCOC(=O)c1ccccc1NC(=O)[C@H]1CC[C@H](CNC(=N)N)CC1.Cl.O [A, N-(o-Ethoxycarbonylphenyl)-trans-4-guanidinomethylcyclohexanecarboxamide hydrochloride monohydrate] | 108 | 36 | 33 | > 3,000 mg/kg | –
2 | COC(=O)c1ccccc1NC(=O)[C@H]1CC[C@H](CNC(=N)N)CC1.Cl.O [B, N-(o-Methoxycarbonylphenyl)-trans-4-guanidinomethylcyclohexanecarboxamide hydrochloride monohydrate] | 118 | 42 | 40 | > 3,000 mg/kg | –
3 | Cl.N=C(N)NC[C@H]1CC[C@H](C(=O)Nc2ccccc2C(=O)O)CC1.O [C, N-(o-Carboxyphenyl)-trans-4-guanidinomethylcyclohexanecarboxamide hydrochloride monohydrate] | 114 | 41 | 37 | > 3,000 mg/kg | –
4 | Cl.N=C(N)NC[C@H]1CC[C@H](C(=O)Oc2ccccc2C(=O)OCc2ccccc2)CC1 [X, Trans-4-guanidinomethylcyclohexanecarboxylic acid o-benzyloxycarbonylphenylester hydrochloride, reference compound] | 376 | 108 | 103 | > 3,000 mg/kg | shows an anti-ulcer activity
5 | Cl.N=C(N)NC[C@H]1CC[C@H](C(=O)Nc2ccccc2)CC1 [Y, N-Phenyl-trans-4-guanidinomethylcyclohexanecarboxamide hydrochloride, reference compound] | 135 | 199 | 86 | < 1,000 mg/kg | shows an anti-ulcer activity
